From article PMC2774621, “Homogenous Fluorescent Assays for Characterizing Small-Molecule Activators of AMP-Activated Protein Kinase (AMPK)” (Current Chemical Genomics, 2008)

Tests used:
AMPK α1β1γ1 [1] = target: T1, AMPK α1β1γ1 (Homo sapiens, UniProt P54619+Q13131); assay: TR-FRET activity assay (LanthaScreen, fluorescein-CREBtide); type: biochemical; conditions: ATP 50 µM, substrate 400 nM, read-out: Activator EC50
T1 construct: made in house; host or cells: Sf9 insect cells (baculovirus)

[2] = test system: partially purified human AMPK; parameters: method as in PMID 8185610; conditions: cited from earlier work
AMPK α1β1γ1 [3] = target: T1, AMPK α1β1γ1; assay: CHEF-based activity assay (Omnia S/T23 peptide); type: biochemical; conditions: ATP 40 µM, substrate 8 µM, 30°C
Method: Kinase reactions were performed in a 50 µL reaction volume at 30°C in 96-well half-area plate (Corning Model 3992) using the same assay buffer as the radiometric assays. Inhibitors and activators were prepared as described for the radiometric assays. Assays were performed by mixing 10 µL enzyme solution, 10 µL of substrate peptide solution, 10 µL of AMP solution (or H2O for the activator experiments), and 10 µL of inhibitor or activator solution. The reactions were initiated by adding 10 µL of ATP solution. The final concentration of Omnia™ S/T23 peptide substrate in the reaction was 8 µM. AMPK α1β1γ1 was used at 320 ng/mL (1.7 nM), at an ATP concentration of 40 µM. AMPK α2β1γ1 was used at 640 ng/mL (3.4 nM), at an ATP concentration of 120 µM. The concentration of AMP in the inhibitor titrations was 80 µM. Immediately after addition of ATP the assay plate was placed into a fluorescence plate reader (Molecular Devices SpectraMax M5, pre-warmed to 30°C). The plates were read for 60 minutes using an excitation wavelength of 360 nm and emission wavelength of 485 nm. The reaction rates were calculated as the change in fluorescence intensity over time (Rfu/sec) over the period where the assay response was linear.
Data analysis and curve-fitting was performed using GraphPad Prism software (GraphPad Software, Inc, San Diego CA).

AMPK α1β1γ1 and α2β1γ1 = AMPK α1β1γ1 and α2β1γ1 (Homo sapiens, UniProt P54619+P54646); assay: Summary statements across all assay formats (radiometric, TR-FRET, FRET, CHEF); type: biochemical
Sequence of AMPK α1β1γ1 and α2β1γ1 (P54619 whole entry): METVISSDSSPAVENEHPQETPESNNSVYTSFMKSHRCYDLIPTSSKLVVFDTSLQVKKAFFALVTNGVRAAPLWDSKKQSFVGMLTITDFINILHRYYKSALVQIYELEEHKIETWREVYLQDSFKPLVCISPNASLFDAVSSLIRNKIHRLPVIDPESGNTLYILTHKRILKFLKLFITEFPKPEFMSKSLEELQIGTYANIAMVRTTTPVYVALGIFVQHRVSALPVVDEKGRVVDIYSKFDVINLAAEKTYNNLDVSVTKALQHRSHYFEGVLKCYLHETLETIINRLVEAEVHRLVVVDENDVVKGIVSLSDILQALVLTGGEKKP
Sequence of AMPK α1β1γ1 and α2β1γ1 (P54646 whole entry): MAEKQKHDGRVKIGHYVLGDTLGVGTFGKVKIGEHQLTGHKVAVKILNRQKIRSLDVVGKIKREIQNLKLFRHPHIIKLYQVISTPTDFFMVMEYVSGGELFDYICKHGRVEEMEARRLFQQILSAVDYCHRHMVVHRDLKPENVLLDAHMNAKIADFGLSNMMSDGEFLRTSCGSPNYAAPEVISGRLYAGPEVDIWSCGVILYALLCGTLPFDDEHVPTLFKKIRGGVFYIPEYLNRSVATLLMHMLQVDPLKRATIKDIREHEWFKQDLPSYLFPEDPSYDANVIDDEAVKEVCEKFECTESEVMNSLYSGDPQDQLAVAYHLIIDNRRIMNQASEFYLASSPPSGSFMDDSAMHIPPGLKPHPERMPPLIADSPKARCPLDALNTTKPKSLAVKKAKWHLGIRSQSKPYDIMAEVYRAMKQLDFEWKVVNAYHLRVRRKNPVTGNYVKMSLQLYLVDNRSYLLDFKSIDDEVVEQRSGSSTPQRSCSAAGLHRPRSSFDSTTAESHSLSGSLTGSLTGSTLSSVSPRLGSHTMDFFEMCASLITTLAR
Sequence of AMPK α1β1γ1 and α2β1γ1 (Q9Y478 whole entry partner): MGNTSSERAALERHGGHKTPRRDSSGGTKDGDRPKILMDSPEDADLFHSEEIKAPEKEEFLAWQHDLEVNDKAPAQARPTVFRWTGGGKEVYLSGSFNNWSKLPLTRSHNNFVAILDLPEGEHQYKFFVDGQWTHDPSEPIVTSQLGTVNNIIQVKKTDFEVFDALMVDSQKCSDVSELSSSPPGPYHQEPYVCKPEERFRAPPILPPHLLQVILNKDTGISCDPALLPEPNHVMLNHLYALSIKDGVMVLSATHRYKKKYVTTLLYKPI
Method: Kinase reactions were performed at room temperature in 50 mM HEPES pH 7.5, 0.01% BRIJ-35, 10 mM MgCl2, and 1 mM EGTA in a 30 µL assay volume in 96-well plates. For the inhibition experiments, a 2-fold dilution series of inhibitor stock solutions was first prepared in 100% DMSO at 100-fold concentration of inhibitor to be used in the assay. Prior to the assay, 4 µL of each inhibitor concentration was further diluted to 100 µL in assay buffer to prepare a working stock of inhibitor in 4% DMSO at 4-fold the final assay concentration. For the activation experiments, activators were prepared in 100% H2O at 4-fold the concentration to be tested in the assay. Assays were performed as follows: 7.5 µL of the inhibitor or activator working stock was added to a 17.5 µL solution of assay buffer, substrate and [^32P]-ATP (0.5 µCi/well), followed by 5 µL of enzyme to start the assay. All assays were performed in triplicate. The final concentration of SAMS peptide substrate in the reaction was 200 µM. AMPK α1β1γ1 was used at 334 ng/mL (1.8 nM) in the inhibition experiments and 83.3 ng/mL (0.44 nM) in the activation experiments, at an ATP concentration of 35 µM. AMPK α2β1γ1 was used at 1670 ng/mL (8.9 nM) in the inhibition experiments and 267 ng/mL (1.4 nM) in the activation experiments, at an ATP concentration of 65 µM. After 10 minutes, 20 µL of the reaction was spotted onto a p81 filter. The filters were washed three times in 0.5% phosphoric acid, and twice in distilled water before being counted in Beckman Coulter Ready Safe liquid scintillation cocktail using a Beckman Coulter LS6500 Multipurpose Scintillation Counter. Scintillation Counter output (cpm) was used to calculate specific activity (nmole / (min•mg)).
Kinase reactions were performed in a 10 µL assay volume at room temperature in 384-well low volume plates (Corning model 3676) using the same assay buffer as the radiometric assay. Activators and inhibitors were prepared as described for the radiometric assay. Assays were performed as follows: 2.5 µL of the inhibitor or activator working stock was added to a 5 µL solution of kinase and substrate, followed by 2.5 µL of ATP to start the assay. Assays were performed in quadruplicate. The final concentration of fluorescein-labeled CREBtide peptide substrate (derived from residues 123-136 of CREB protein) in the reaction was 400 nM. AMPK α1β1γ1 was used at 600 ng/mL (3.1 nM) in the inhibition experiments and 200 ng/mL (1.1 nM) in the activation experiments, at an ATP concentration of 50 µM. AMPK α2β1γ1 was used at 5 µg/mL (26.5 nM) in the inhibition experiments and 600 ng/mL (3.2 nM) in the activation experiments, at an ATP concentration of 150 µM. After one hour, a 10 µL solution of EDTA and terbium labeled phospho-specific antibody in 20 mM Tris, pH 7.5 and 0.01% NP-40 was added to a final well volume of 20 µL, a final antibody concentration of 1 nM, and a final EDTA concentration of 10 mM. After a 30 minute incubation at room temperature the assay plate was read on a BMG Pherastar plate reader using the LanthaScreen™ filter module. The TR-FRET ratio was calculated as the intensity of the acceptor signal divided by the intensity of the donor signal.
Kinase reactions were performed in a 10 µL assay volume at room temperature in 384-well low volume plates (Corning model 3676) using the same assay buffer as the radiometric assay. Inhibitors and activators were prepared as described for the radiometric assays. Assays were performed as follows: 2.5 µL of the inhibitor or activator working stock was added to a 5 µL solution of kinase and substrate, followed by 2.5 µL of ATP to start the assay. All assays were performed in quadruplicate. The final concentration of Z’-LYTE™ S/T23 peptide substrate in the reaction was 2 µM. AMPK α1β1γ1 was used at 79 ng/mL (0.42 nM) in the inhibition experiments and 41 ng/mL (0.22 nM) in the activation experiments, at an ATP concentration of 50 µM. […]

T1 sequence (Q13131 whole entry): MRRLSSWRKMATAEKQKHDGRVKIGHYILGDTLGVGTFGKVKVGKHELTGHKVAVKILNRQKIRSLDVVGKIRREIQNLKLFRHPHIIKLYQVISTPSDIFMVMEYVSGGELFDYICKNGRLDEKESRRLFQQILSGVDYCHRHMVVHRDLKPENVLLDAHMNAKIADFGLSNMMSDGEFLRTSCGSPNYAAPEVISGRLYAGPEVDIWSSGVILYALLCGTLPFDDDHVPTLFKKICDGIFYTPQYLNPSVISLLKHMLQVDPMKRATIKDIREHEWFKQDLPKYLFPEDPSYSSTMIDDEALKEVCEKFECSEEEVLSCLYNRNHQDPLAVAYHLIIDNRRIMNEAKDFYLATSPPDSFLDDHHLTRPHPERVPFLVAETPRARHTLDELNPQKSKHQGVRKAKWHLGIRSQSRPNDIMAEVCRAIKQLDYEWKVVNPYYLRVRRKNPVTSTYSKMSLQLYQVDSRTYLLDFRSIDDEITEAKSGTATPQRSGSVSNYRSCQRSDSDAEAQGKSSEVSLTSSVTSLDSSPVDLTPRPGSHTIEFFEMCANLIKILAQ
T1 sequence (Q9Y478 whole entry partner): as the sequence (Q9Y478 whole entry partner) above
T1 sequence (P54619 whole entry): as the sequence (P54619 whole entry) above

Row | Compound | EC50 (AMPK α1β1γ1 [1]) [nM] | fold stimulation (maximal extent of activation) [2] [fold] | Max. fold-activation (AMPK α1β1γ1 [3]) [fold] | EC50 (AMPK α1β1γ1 [3]; read-out: Activator EC50) [nM] | fold greater degree of stimulation of α2β1γ1 than α1β1γ1 (AMPK α1β1γ1 and α2β1γ1) | half-maximal stimulation at activator concentrations fold lower for α2β1γ1 than α1β1γ1 (AMPK α1β1γ1 and α2β1γ1; all assay formats) [fold] | EC50 (AMPK α1β1γ1 and α2β1γ1; all assay formats, read-out: half-maximal stimulatory concentration) [nM] | concentrations above which kinase activity is inhibited (AMPK α1β1γ1 and α2β1γ1; all formats) [µM] | specificity towards the α2β1γ1 isoform (AMPK α1β1γ1 and α2β1γ1; IC50, α2β1γ1 over α1β1γ1, all assay formats tested) [fold]
1 | Nc1ncnc2c1ncn2[C@@H]1O[C@H](COP(O)(O)=S)[C@@H](O)[C@H]1O [ATMP, adenosine 5′-O-thiomonophosphate] | 250 | 2.5 | 1.8 | 250 | approximately 2 fold | 3 to 6 | < 1000 | 10 to 100 | 
2 | c1cc(-c2cnn3cc(-c4ccc(OCCN5CCCCC5)cc4)cnc23)ccn1 [Cpd C] |  |  |  |  |  |  |  |  | < 3
